{"source": "patent US20260248926A1", "about": "“BIFUNCTIONAL COMPOUND AND PHARMACEUTICAL COMPOSITION COMPRISING THE BIFUNCTIONAL COMPOUND, AND METHOD FOR TREATING ANDROGEN RECEPTOR RELATED DISEASE BY USING THE SAME” (ANHORN MEDICINES CO., LTD., priority 2022, published 2026)", "data": [{"target": "T1, androgen receptor (Homo sapiens, UniProt P10275, T878A)", "T1 construct": "Several compounds were selected and serial diluted (10×) with RPMI medium for treating LNCaP.FGC cells; host or cells: LNCaP.FGC", "T1 sequence (P10275 whole entry T878A)": "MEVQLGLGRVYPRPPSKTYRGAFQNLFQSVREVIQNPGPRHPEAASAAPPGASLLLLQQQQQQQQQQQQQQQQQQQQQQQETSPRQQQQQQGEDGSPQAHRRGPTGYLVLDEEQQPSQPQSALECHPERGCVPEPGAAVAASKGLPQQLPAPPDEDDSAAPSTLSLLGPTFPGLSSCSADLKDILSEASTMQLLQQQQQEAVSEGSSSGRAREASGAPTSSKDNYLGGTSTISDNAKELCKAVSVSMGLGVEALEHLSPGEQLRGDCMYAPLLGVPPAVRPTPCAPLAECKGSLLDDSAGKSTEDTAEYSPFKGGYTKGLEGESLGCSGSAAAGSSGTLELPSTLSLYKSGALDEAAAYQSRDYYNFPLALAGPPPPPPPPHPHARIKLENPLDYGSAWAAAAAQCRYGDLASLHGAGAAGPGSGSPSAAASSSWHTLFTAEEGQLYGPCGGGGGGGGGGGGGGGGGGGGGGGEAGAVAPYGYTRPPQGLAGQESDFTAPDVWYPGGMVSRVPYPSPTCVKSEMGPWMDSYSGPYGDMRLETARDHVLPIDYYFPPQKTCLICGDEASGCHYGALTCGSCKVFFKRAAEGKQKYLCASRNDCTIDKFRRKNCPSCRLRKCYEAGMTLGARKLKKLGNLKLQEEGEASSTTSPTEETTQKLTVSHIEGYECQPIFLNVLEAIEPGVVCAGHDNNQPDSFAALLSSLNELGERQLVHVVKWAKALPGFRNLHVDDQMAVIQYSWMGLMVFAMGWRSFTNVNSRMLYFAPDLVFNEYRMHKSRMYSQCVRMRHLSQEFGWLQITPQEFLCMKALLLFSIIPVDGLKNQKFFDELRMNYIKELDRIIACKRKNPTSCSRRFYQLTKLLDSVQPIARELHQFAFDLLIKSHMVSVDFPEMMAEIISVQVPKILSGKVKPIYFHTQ", "T1 sequence (Q96SW2 whole entry partner)": "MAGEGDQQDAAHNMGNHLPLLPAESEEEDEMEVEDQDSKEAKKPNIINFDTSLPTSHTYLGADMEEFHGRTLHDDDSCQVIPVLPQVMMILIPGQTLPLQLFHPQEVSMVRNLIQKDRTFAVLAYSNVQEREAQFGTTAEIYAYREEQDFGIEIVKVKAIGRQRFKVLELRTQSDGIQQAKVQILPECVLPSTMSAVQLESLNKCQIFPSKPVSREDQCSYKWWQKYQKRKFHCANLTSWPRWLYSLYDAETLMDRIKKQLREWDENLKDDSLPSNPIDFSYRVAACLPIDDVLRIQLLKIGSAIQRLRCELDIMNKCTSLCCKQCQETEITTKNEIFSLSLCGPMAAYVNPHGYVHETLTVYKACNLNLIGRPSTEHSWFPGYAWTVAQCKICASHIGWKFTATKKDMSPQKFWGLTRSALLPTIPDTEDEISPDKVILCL", "test": "Androgen receptor degradation assay using Western blot analysis in LNCaP.FGC cells", "type": "cell-based", "conditions": "concentration needed for 50% AR degradation, 24 hr treatment, read-out: AR DC50", "procedure": "(§1) The internal loading control GAPDH was detected using a mouse monoclonal antibody (1:5000) (GTX627408, GeneTex International Corp., HsinChu City, Taiwan R.O.C.) and a goat anti-mouse HRP-conjugated secondary antibody (1:5000 dilution) (C04001, Croyez Bioscience Co., Ltd., Taipei City, Taiwan R.O.C.).\n(§2) Several compounds were selected and serial diluted (10×) with RPMI medium for treating LNCaP.FGC cells. A calibration curve was determined by the serial diluted samples for each compound, and the concentration needed for 50% AR degradation (AR DC50) for each compound was calculated.", "units": {"DC50": "nM"}, "values": [{"smiles": "Cn1c2c(c3ccc(C4CCN(CC5CCN(c6ccc(C(=O)N[C@H]7CC[C@H](Oc8ccc(C#N)c(Cl)c8)CC7)nn6)C5)CC4)cc31)C(=O)N(C1CCC(=O)NC1=O)C2=O", "note": "(stereo partly shown) [Compound 34]", "DC50": "10 to 25"}, {"smiles": "Cn1c2c(c3ccc(C4CCN(CC5CCN(c6ccc(C(=O)N[C@H]7CC[C@H](Oc8ccc(C#N)c(Cl)c8)CC7)nn6)CC5)CC4)cc31)C(=O)N(C1CCC(=O)NC1=O)C2=O", "note": "(stereo partly shown) [Compound 29]", "DC50": "10 to 25"}, {"smiles": "Cn1c2c(c3cc(N4CCN(CC5CCN(c6ccc(C(=O)N[C@H]7CC[C@H](Oc8ccc(C#N)c(Cl)c8)CC7)nn6)CC5)CC4)ccc31)C(=O)N(C1CCC(=O)NC1=O)C2=O", "note": "(stereo partly shown) [Compound 41]", "DC50": "> 100"}, {"smiles": "Cn1c2c(c3ccc(N4CCN(CC5CN(c6ccc(C(=O)N[C@H]7CC[C@H](Oc8ccc(C#N)c(Cl)c8)CC7)nn6)C5)CC4)cc31)C(=O)N(C1CCC(=O)NC1=O)C2=O", "note": "(stereo partly shown) [Compound 1]", "DC50": "< 10"}, {"smiles": "Cn1c2c(c3ccc(N4CCN(CC5CCN(c6ccc(C(=O)N[C@H]7CC[C@@H](Oc8ccc(C#N)c(Cl)c8)CC7)nn6)CC5)CC4)cc31)C(=O)N(C1CCC(=O)NC1=O)C2=O", "note": "(stereo partly shown) [Compound 22]", "DC50": "10 to 25"}, {"smiles": "Cn1c2c(c3ccc(C4CCN(CC5CN(c6ccc(C(=O)N[C@H]7CC[C@H](Oc8ccc(C#N)c(Cl)c8)CC7)nn6)C5)CC4)cc31)C(=O)N(C1CCC(=O)NC1=O)C2=O", "note": "(stereo partly shown) [Compound 2]", "DC50": "< 10"}, {"smiles": "Cn1c2c(c3ccc(C4CCN(CC5CCN(c6ccc(C(=O)N[C@H]7CC[C@@H](Oc8ccc(C#N)c(Cl)c8)CC7)nn6)CC5)CC4)cc31)C(=O)N(C1CCC(=O)NC1=O)C2=O", "note": "(stereo partly shown) [Compound 30]", "DC50": "< 10"}, {"smiles": "Cn1c2c(c3cc(N4CCN(CC5CN(c6ccc(C(=O)N[C@H]7CC[C@H](Oc8ccc(C#N)c(Cl)c8)CC7)nn6)C5)CC4)ccc31)C(=O)N(C1CCC(=O)NC1=O)C2=O", "note": "(stereo partly shown) [Compound 47]", "DC50": "25 to 100"}, {"smiles": "Cn1c2c(c3cc(N4CCN(CC5CCN(c6ccc(C(=O)N[C@H]7CC[C@@H](Oc8ccc(C#N)c(Cl)c8)CC7)nn6)CC5)CC4)ccc31)C(=O)N(C1CCC(=O)NC1=O)C2=O", "note": "(stereo partly shown) [Compound 42]", "DC50": "25 to 100"}, {"smiles": "Cn1c2c(c3ccc(N4CCN(CC5CCN(c6ccc(C(=O)N[C@H]7C(C)(C)[C@H](Oc8ccc(C#N)c(Cl)c8)C7(C)C)cn6)CC5)CC4)cc31)C(=O)N(C1CCC(=O)NC1=O)C2=O", "note": "(stereo partly shown) [Compound 27]", "DC50": "10 to 25"}, {"smiles": "Cn1c2c(c3ccc(N4CCN(CC5CCN(c6ncc(C(=O)N[C@H]7CC[C@H](Oc8ccc(C#N)c(Cl)c8)CC7)cn6)CC5)CC4)cc31)C(=O)N(C1CCC(=O)NC1=O)C2=O", "note": "(stereo partly shown) [Compound 35]", "DC50": "10 to 25"}, {"smiles": "Cn1c2c(c3ccc(N4CCN(CC5CCN(c6ccc(C(=O)N[C@H]7C(C)(C)[C@@H](Oc8ccc(C#N)c(Cl)c8)C7(C)C)cn6)CC5)CC4)cc31)C(=O)N(C1CCC(=O)NC1=O)C2=O", "note": "(stereo partly shown) [Compound 28]", "DC50": "25 to 100"}, {"smiles": "Cn1c2c(c3ccc(N4CCN(CC5CCN(c6ccc(C(=O)N[C@H]7CC[C@H](Oc8ccc(C#N)c(Cl)c8)CC7)nn6)CC5)CC4)cc31)C(=O)N(C1CCC(=O)NC1=O)C2=O", "note": "(stereo partly shown) [Compound 21]", "DC50": "< 10"}]}, {"target": "T1, androgen receptor", "test": "Androgen receptor degradation assay using Western blot analysis in LNCaP.FGC cells", "type": "cell-based", "conditions": "read-out: AR DC50, concentration needed for 50% AR degradation, 24 hr treatment", "procedure": "as §1, §2", "units": {"DC50": "nM"}, "values": [{"smiles": "CCn1c2c(c3ccc(N4CCN(CC5CCN(c6ccc(C(=O)N[C@H]7CC[C@@H](Oc8ccc(C#N)c(Cl)c8)CC7)nn6)CC5)CC4)cc31)C(=O)N([C@H]1CCC(=O)NC1=O)C2=O", "note": "[Compound 39]", "DC50": "10 to 25"}, {"smiles": "CCn1c2c(c3ccc(N4CCC5(CC4)CN(CC4CCN(c6ccc(C(=O)N[C@H]7CC[C@H](Oc8ccc(C#N)c(Cl)c8)CC7)nn6)CC4)C5)cc31)C(=O)N(C1CCC(=O)NC1=O)C2=O", "note": "(stereo partly shown) [Compound 51]", "DC50": "< 10"}, {"smiles": "CCn1c2c(c3ccc(N4CCN(CC5CCN(c6ccc(C(=O)N[C@H]7CC[C@H](Oc8ccc(C#N)c(Cl)c8)CC7)nn6)CC5)CC4)cc31)C(=O)N([C@H]1CCC(=O)NC1=O)C2=O", "note": "[Compound 36]", "DC50": "10 to 25"}, {"smiles": "CCn1c2c(c3ccc(N4CCN(CC5CCN(c6ncc(C(=O)N[C@H]7CC[C@H](Oc8ccc(C#N)c(Cl)c8)CC7)cn6)CC5)CC4)cc31)C(=O)N(C1CCC(=O)NC1=O)C2=O", "note": "(stereo partly shown) [Compound 25]", "DC50": "10 to 25"}, {"smiles": "CCn1c2c(c3ccc(N4CCN(CC5CCN(c6ncc(C(=O)N[C@H]7CC[C@@H](Oc8ccc(C#N)c(Cl)c8)CC7)cn6)CC5)CC4)cc31)C(=O)N(C1CCC(=O)NC1=O)C2=O", "note": "(stereo partly shown) [Compound 26]", "DC50": "> 100"}, {"smiles": "CCn1c2c(c3ccc(N4CCN(CC5CCN(c6ccc(C(=O)N[C@H]7C(C)(C)[C@@H](Oc8ccc(C#N)c(Cl)c8)C7(C)C)cc6)CC5)CC4)cc31)C(=O)N(C1CCC(=O)NC1=O)C2=O", "note": "(stereo partly shown) [Compound 16]", "DC50": "> 100"}, {"smiles": "CCn1c2c(c3ccc(C4CCN(CC5CCN(c6ccc(C(=O)N[C@H]7CC[C@H](Oc8ccc(C#N)c(Cl)c8)CC7)nn6)CC5)CC4)cc31)C(=O)N(C1CCC(=O)NC1=O)C2=O", "note": "(stereo partly shown) [Compound 11]", "DC50": "< 10"}, {"smiles": "CCn1c2c(c3ccc(C4=CCN(CC5CCN(c6ccc(C(=O)N[C@H]7CC[C@H](Oc8ccc(C#N)c(Cl)c8)CC7)nn6)CC5)CC4)cc31)C(=O)N(C1CCC(=O)NC1=O)C2=O", "note": "(stereo partly shown) [Compound 48]", "DC50": "10 to 25"}, {"smiles": "CCn1c2c(c3ccc(N4CCN(CC5CCN(c6ccc(C(=O)N[C@H]7C(C)(C)[C@H](Oc8ccc(C#N)c(Cl)c8)C7(C)C)cn6)CC5)CC4)cc31)C(=O)N(C1CCC(=O)NC1=O)C2=O", "note": "(stereo partly shown) [Compound 6]", "DC50": "25 to 100"}, {"smiles": "CCn1c2c(c3ccc(N4CCN(CC5CCN(c6ccc(C(=O)N[C@H]7C(C)(C)[C@H](Oc8ccc(C#N)c(Cl)c8)C7(C)C)cc6)CC5)CC4)cc31)C(=O)N(C1CCC(=O)NC1=O)C2=O", "note": "(stereo partly shown) [Compound 15]", "DC50": "25 to 100"}, {"smiles": "CCn1c2c(c3ccc(N4CCN(CC5CCN(c6ccc(C(=O)N[C@H]7C(C)(C)[C@@H](Oc8ccc(C#N)c(Cl)c8)C7(C)C)cn6)CC5)CC4)cc31)C(=O)N(C1CCC(=O)NC1=O)C2=O", "note": "(stereo partly shown) [Compound 7]", "DC50": "25 to 100"}, {"smiles": "CCn1c2c(c3ccc(N4CCN(CC5CCN(c6ccc(C(=O)N[C@H]7CC[C@@H](Oc8ccc(C#N)c(Cl)c8)CC7)nn6)CC5)CC4)cc31)C(=O)N(C1CCC(=O)NC1=O)C2=O", "note": "(stereo partly shown) [Compound 33]", "DC50": "< 10"}, {"smiles": "CCn1c2c(c3ccc(N4CCN(CC5CCN(c6ccc(C(=O)N[C@H]7CC[C@H](Oc8ccc(C#N)c(Cl)c8)CC7)nn6)CC5)CC4)cc31)C(=O)N(C1CCC(=O)NC1=O)C2=O", "note": "(stereo partly shown) [Compound 23]", "DC50": "10 to 25"}, {"smiles": "CCn1c2c(c3ccc(N4CCN(CC5CCN(c6ccc(C(=O)N[C@H]7CC[C@@H](Oc8ccc(C#N)c(Cl)c8)CC7)cn6)CC5)CC4)cc31)C(=O)N(C1CCC(=O)NC1=O)C2=O", "note": "(stereo partly shown) [Compound 5]", "DC50": "25 to 100"}, {"smiles": "CCn1c2c(c3ccc(C4CCN(CC5CCN(c6ccc(C(=O)N[C@H]7CC[C@@H](Oc8ccc(C#N)c(Cl)c8)CC7)nn6)CC5)CC4)cc31)C(=O)N(C1CCC(=O)NC1=O)C2=O", "note": "(stereo partly shown) [Compound 12]", "DC50": "10 to 25"}, {"smiles": "CCn1c2c(c3ccc(C4CCN(CC5CCN(c6ccc(C(=O)N[C@H]7CC[C@H](Oc8ccc(C#N)c(Cl)c8)CC7)nn6)C5)CC4)cc31)C(=O)N(C1CCC(=O)NC1=O)C2=O", "note": "(stereo partly shown) [Compound 18]", "DC50": "10 to 25"}, {"smiles": "CCn1c2c(c3ccc(N4CCN(CC5CCN(c6ccc(C(=O)N[C@H]7CC[C@H](Oc8ccc(C#N)c(Cl)c8)CC7)nn6)C5)CC4)cc31)C(=O)N(C1CCC(=O)NC1=O)C2=O", "note": "(stereo partly shown) [Compound 17]", "DC50": "10 to 25"}, {"smiles": "CCn1c2c(c3ccc(N4CCN(CC5CCN(c6ccc(C(=O)N[C@H]7CC[C@H](Oc8ccc(C#N)c(Cl)c8)CC7)cn6)CC5)CC4)cc31)C(=O)N(C1CCC(=O)NC1=O)C2=O", "note": "(stereo partly shown) [Compound 4]", "DC50": "25 to 100"}, {"smiles": "CCn1c2c(c3ccc(C4CCN(CC5CCN(c6ccc(C(=O)N[C@H]7C(C)(C)[C@H](Oc8ccc(C#N)c(Cl)c8)C7(C)C)cc6)CC5)CC4)cc31)C(=O)N(C1CCC(=O)NC1=O)C2=O", "note": "(stereo partly shown) [Compound 24]", "DC50": "25 to 100"}, {"smiles": "CCn1c2c(c3ccc(N4CCN(CC5CCN(c6ccc(C(=O)N[C@H]7C(C)(C)[C@@H](Oc8ccc(C#N)c(Cl)c8)C7(C)C)nn6)CC5)CC4)cc31)C(=O)N(C1CCC(=O)NC1=O)C2=O", "note": "(stereo partly shown) [Compound 9]", "DC50": "25 to 100"}, {"smiles": "CCn1c2c(c3ccc(N4CCC(CN5CCC(c6ccc(C(=O)N[C@H]7CC[C@H](Oc8ccc(C#N)c(Cl)c8)CC7)nn6)CC5)CC4)cc31)C(=O)N(C1CCC(=O)NC1=O)C2=O", "note": "(stereo partly shown) [Compound 40]", "DC50": "10 to 25"}, {"smiles": "CCn1c2c(c3ccc(N4CCN(CC5CN(c6ccc(C(=O)N[C@H]7CC[C@H](Oc8ccc(C#N)c(Cl)c8)CC7)nn6)C5)CC4)cc31)C(=O)N(C1CCC(=O)NC1=O)C2=O", "note": "(stereo partly shown) [Compound 3]", "DC50": "< 10"}, {"smiles": "CCn1c2c(c3ccc(N4CCN(CC5CCN(c6ccc(C(=O)N[C@H]7C(C)(C)[C@H](Oc8ccc(C#N)c(Cl)c8)C7(C)C)nn6)CC5)CC4)cc31)C(=O)N(C1CCC(=O)NC1=O)C2=O", "note": "(stereo partly shown) [Compound 8]", "DC50": "25 to 100"}, {"smiles": "CCn1c2c(c3ccc(C4CCN(CC5CN(c6ccc(C(=O)N[C@H]7CC[C@H](Oc8ccc(C#N)c(Cl)c8)CC7)nn6)C5)CC4)cc31)C(=O)N(C1CCC(=O)NC1=O)C2=O", "note": "(stereo partly shown) [Compound 10]", "DC50": "< 10"}]}]}
